Measurements taken from PMC3281842, “Crystal Structure of TDRD3 and Methyl-Arginine Binding Characterization of TDRD3, SMN and SPF30” (PLoS ONE, 2012).
Read-outs that look alike come from different tables or passages of the source. Square brackets hold non-standard residues; d marks the D form. Peptide text beside a SMILES is read from it. Arg(Me2a) = CN(C)C(=N)NCCC[C@H](N)C(=O)O; Arg(Me2s) = CN=C(NC)NCCC[C@H](N)C(=O)O; Arg(Me) = CNC(=N)NCCC[C@H](N)C(=O)O

Legend:
SPF30 (aa 65–150) = target: T1, SPF30 (aa 65–150) (Homo sapiens, UniProt O75940); assay: Fluorescence polarization binding assay, SPF30 Tudor domain; details: fluorescein-labeled peptide, 20 mM Tris pH 7.5, 50 mM NaCl, 1 mM DTT, 0.01% Triton X-100, 25°C, average of three independent measurements, NB = no detectable binding
T1 construct: SPF30 (aa 65–150); His tag (pET28-MHL) (N); made in house; host or cells: Escherichia coli BL21 (DE3)
T1 sequence (O75940 65-150): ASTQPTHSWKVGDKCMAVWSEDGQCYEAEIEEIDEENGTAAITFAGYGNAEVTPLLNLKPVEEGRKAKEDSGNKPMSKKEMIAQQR
Method: (§1) Figure 1 Fluorescence polarization binding curves of TDRD3 (aa 520–633), SMN (aa 80–170), and SPF30 (aa 65–150) to the PIWIL1-R4 peptides. The buffer used in the fluorescence polarization assay is 20 mM Tris pH 7.5, 50 mM NaCl, 1 mM DTT and 0.01% Triton X-100. The data are measured at 25°C and corrected for background by subtracting the free-labeled peptide background. The Kd values are the average of three independent measurements.
(§2) All the regular and fluorescent peptides used this study were synthesized by Tufts University Core Services (Boston, USA). The fluorescence polarization assay was carried out as described before. The buffer used in the fluorescence polarization assay is 20 mM Tris pH 7.5, 50 mM NaCl, 1 mM DTT and 0.01% Triton X-100. An excitation wavelength of 485 nm and an emission wavelength of 528 nm are used. The data are measured at 25°C and corrected for background by subtracting the free-labeled peptide background. The data were collected by the Synergy 2 (BioTec, USA) fluorescence polarization program and were fit to one-site binding model using Origin 7 (MicroCal, Inc.). The Kd values are the average of three independent measurements.

SND1 (aa 650–910) [1] = target: T2, SND1 (aa 650–910) (Homo sapiens, UniProt Q7KZF4); details: values marked * in Table 1; NB = no detectable binding; ref Liu K et al, PNAS, 2010 [20]; cited from earlier work
T2 construct: SND1 (aa 650–910)
T2 sequence (Q7KZF4 650-910): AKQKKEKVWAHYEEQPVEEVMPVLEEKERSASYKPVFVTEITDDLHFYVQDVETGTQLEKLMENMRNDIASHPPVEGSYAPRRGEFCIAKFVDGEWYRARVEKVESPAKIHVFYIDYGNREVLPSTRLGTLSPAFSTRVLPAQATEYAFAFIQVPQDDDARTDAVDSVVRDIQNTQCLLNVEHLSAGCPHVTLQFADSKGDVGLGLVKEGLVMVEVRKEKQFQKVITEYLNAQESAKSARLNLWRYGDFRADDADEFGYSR
Source text: Table 1 Binding affinities of TDRD3 (aa 520–633), SMN (aa 80–170), and SPF30 (aa 65–150) to different methyl-arginine peptides in comparison with SND1 (aa 650–910). | column: Kd (µM) / SND1 (aa 650–910)

SMN (aa 80–170) = target: T3, SMN (aa 80–170) (Homo sapiens, UniProt Q16637); assay: Fluorescence polarization binding assay, SMN Tudor domain; details: for Kd: fluorescence polarization, fluorescein-labeled peptide, 20 mM Tris pH 7.5, 50 mM NaCl, 1 mM DTT, 0.01% Triton X-100, 25°C, average of three independent measurements, NB = no detectable binding
T3 construct: SMN (aa 80–170); His tag (pET28-MHL) (N); made in house; host or cells: Escherichia coli BL21 (DE3)
T3 sequence (Q16637 80-170): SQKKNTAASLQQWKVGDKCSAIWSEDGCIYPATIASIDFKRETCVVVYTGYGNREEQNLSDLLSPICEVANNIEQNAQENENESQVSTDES
Method: as §1, §2

TDRD3 (aa 520–633) [2] = target: T4, TDRD3 (aa 520–633) (Homo sapiens, UniProt Q9H7E2); assay: Fluorescence polarization binding assay, TDRD3 Tudor domain; details: fluorescein-labeled peptide, 20 mM Tris pH 7.5, 50 mM NaCl, 1 mM DTT, 0.01% Triton X-100, 25°C, average of three independent measurements, NB = no detectable binding
T4 construct: TDRD3 (aa 520–633); His tag (pET28-MHL) (N); made in house; host or cells: Escherichia coli BL21 (DE3)
T4 sequence (Q9H7E2 520-633): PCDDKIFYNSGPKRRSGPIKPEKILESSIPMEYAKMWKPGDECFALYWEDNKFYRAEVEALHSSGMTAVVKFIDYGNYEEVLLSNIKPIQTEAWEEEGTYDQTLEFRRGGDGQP
Method: TDRD3 contains a Tudor domain at its C-terminus. […] In order to characterize its binding specificity and affinity quantitatively, we performed a series of fluorescence polarization (FP) binding assays using our fluorescein-labeled peptide library, which includes GAR motif-containing SmD3 and PIWIL1 peptides, PGM motif-containing SmB peptides, and histone H3R2 peptides (Table 1 and Fig. 1). A low salt concentration (50 mM NaCl) is used in the FP binding assay due to the weak binding affinities of these proteins to their ligands. At this salt concentration, the binding affinities are increased about four times compared to the data measured at 200 mM NaCl (Fig. S1), which will save the reagents and make the Kd measurement more reliable. […] Therefore, TDRD3 has a different binding selectivity than SND1, which we have previously established that the extended Tudor domain of SND1 preferentially binds symmetrically dimethylated arginine PIWIL1 peptides. Similar to SND1, the binding selectivity of TDRD3 among these three different arginine methylation marks is about 2 to 4-fold (Table 1).
as §1, §2

SND1 (aa 650–910) [3] = target: T2, SND1 (aa 650–910); assay: Fluorescence polarization binding assay, SND1 extended Tudor domain; details: values without asterisk in Table 1, NB = no detectable binding
Method: as §2

TDRD3 (aa 520–633) [4] = target: T4, TDRD3 (aa 520–633); assay: ITC (Isothermal Titration Calorimetry) binding, TDRD3; details: 20 mM Tris pH 8.0, 200 mM NaCl, 25°C, one-site binding model, NB = no detectable binding
Method: Figure 2 Preferential binding of TDRD3 to asymmetrical dimethylated H3R17 peptide over symmetrical dimethylated H3R17 peptide. The ITC measurements were done in 20 mM Tris pH 8.0 and 200 mM NaCl using the same TDRD3 construct as used in Table 1. The measurements were taken at 25°C. Binding isotherms were plotted and analyzed using Origin Software (MicroCal Inc.). The ITC measurements were fit to a one-site binding model. (A) Histone H3R17me2a peptide (TGGKAPRme2aKQLATKA). (B) Histone H3R17me2s peptide (TGGKAPRme2sKQLATKA). (C) PIWIL1_R4me2a peptide (TGRme2aARARA). TEXT PRINTED IN THE PICTURE: (A) H3R17me2a: Kd>1000μM | (B) H3R17me2s: No binding | (C) PIWIL1_R4me2a: Kd>500μM
The protocol for ITC (Isothermal Titration Calorimetry) was carried out as described before. The ITC buffer used in this study is 20 mM Tris pH 8.0 and 200 mM NaCl. The measurements were taken at 25°C. Binding isotherms were plotted and analyzed using Origin Software (MicroCal Inc.). The ITC measurements were fit to a one-site binding model.

| Compound | Kd (SPF30 (aa 65–150)) | Kd (SMN (aa 80–170)) | Kd (TDRD3 (aa 520–633) [2]) | further results |
| --- | --- | --- | --- | --- |
| ARTK (me)1/2/3 QTARKST [Histone H3K4me1/2/3, histone H3 peptides mono-, di- or trimethylated at K4, reported in one line] | > 500 µM | > 500 µM | – | Kd (SND1 (aa 650–910) [1]): > 500 µM |
| CN=C(NC)NCCC[C@H](NC(=O)[C@H](CCSC)NC(=O)CNC(=O)[C@@H]1CCCN1C(=O)[C@@H]1CCCN1)C(=O)NCC(=O)N1CCC[C@H]1C(=O)N1CCC[C@H]1C(=O)N1CCC[C@H]1C(=O)O [PGM(SmB221SD)] (H-PPGM[Arg(Me2s)]GPPP-OH; N-terminus and C-terminus assumed) | > 500 µM | > 500 µM | – | Kd (SND1 (aa 650–910) [3]): > 500 µM |
| CN=C(NC)NCCC[C@H](NC(=O)CNC(=O)[C@@H]1CCCN1C(=O)[C@@H]1CCCN1C(=O)[C@@H](N)Cc1ccc(O)cc1)C(=O)NCC(=O)NCC(=O)N1CCC[C@H]1C(=O)N1CCC[C@H]1C(=O)N1CCC[C@H]1C(=O)O [PGM(SmB165SD)] (H-YPPG[Arg(Me2s)]GGPPP-OH; N-terminus and C-terminus assumed) | > 500 µM | > 300 µM | – | Kd (SND1 (aa 650–910) [3]): > 500 µM |
| C[C@H](NC(=O)[C@H](CCCNC(=N)N)NC(=O)[C@H](C)NC(=O)[C@H](CCCNC(=N)N)NC(=O)[C@H](C)NC(=O)[C@H](CCCNC(=N)N(C)C)NC(=O)CNC(=O)[C@@H](N)[C@@H](C)O)C(=O)O [PIWIL1_R4me2a peptide (TGRme2aARARA)] (H-TG[Arg(Me2a)]ARARA-OH; N-terminus and C-terminus assumed) | – | – | – | Kd (TDRD3 (aa 520–633) [4]): > 500 µM |
| CC(C)C[C@H](NC(=O)[C@H](CCC(N)=O)NC(=O)[C@H](CCCCN)NC(=O)[C@H](CCCNC(=N)N(C)C)NC(=O)[C@@H]1CCCN1C(=O)[C@H](C)NC(=O)[C@H](CCCCN)NC(=O)CNC(=O)CNC(=O)[C@@H](N)[C@@H](C)O)C(=O)N[C@@H](C)C(=O)N[C@H](C(=O)N[C@@H](CCCCN)C(=O)N[C@@H](C)C(=O)O)[C@@H](C)O [H3R17me2a] | – | – | – | Kd (TDRD3 (aa 520–633) [4]): > 1000 µM |
| ARTKQTARK(me)1/2/3STGGKA [Histone H3K9me1/2/3, histone H3 peptides mono-, di- or trimethylated at K9, reported in one line] | > 500 µM | > 500 µM | – | Kd (SND1 (aa 650–910) [1]): > 500 µM |
| CN=C(NC)NCCC[C@H](NC(=O)[C@@H]1CCCN1C(=O)[C@H](C)NC(=O)[C@H](CCCCN)NC(=O)CNC(=O)CNC(=O)[C@@H](N)[C@@H](C)O)C(=O)N[C@@H](CCCCN)C(=O)N[C@@H](CCC(N)=O)C(=O)N[C@@H](CC(C)C)C(=O)N[C@@H](C)C(=O)N[C@H](C(=O)N[C@@H](CCCCN)C(=O)N[C@@H](C)C(=O)O)[C@@H](C)O [H3R17me2s] | – | – | – | Kd (TDRD3 (aa 520–633) [4]): > 500 µM; Kd TDRD3 (aa 520–633) by ITC (TDRD3 (aa 520–633) [4]): No binding |
| CN=C(NC)NCCC[C@H](NC(=O)[C@H](CCSC)NC(=O)CNC(=O)[C@@H]1CCCN1C(=O)[C@@H]1CCCN1)C(=O)N1CCC[C@H]1C(=O)N1CCC[C@H]1C(=O)N1CCC[C@H]1C(=O)N1CCC[C@H]1C(=O)NCC(=O)O [PGM(SmB214SD)] (H-PPGM[Arg(Me2s)]PPPPG-OH; N-terminus and C-terminus assumed) | > 500 µM | > 400 µM | – | Kd (SND1 (aa 650–910) [3]): > 500 µM |

The next lines start with results.

| Kd (SPF30 (aa 65–150)) | Kd (SMN (aa 80–170)) | Kd (TDRD3 (aa 520–633) [2]) | Compound | further results |
| --- | --- | --- | --- | --- |
| > 500 µM | > 150 µM | > 500 µM | CNC(=N)NCCC[C@H](NC(=O)CNC(=O)[C@@H](N)[C@@H](C)O)C(=O)N[C@@H](C)C(=O)N[C@@H](CCCNC(=N)N)C(=O)N[C@@H](C)C(=O)N[C@@H](CCCNC(=N)N)C(=O)N[C@@H](C)C(=O)N[C@@H](CCCNC(=N)N)C(=O)NCC(=O)N[C@@H](CCCNC(=N)N)C(=O)N[C@@H](C)C(=O)N[C@@H](CCCNC(=N)N)C(=O)NCC(=O)N[C@@H](CCC(N)=O)C(=O)N[C@@H](CCC(=O)O)C(=O)O [PIWIL1-R4me1] (H-TG[Arg(Me)]ARARARGRARGQE-OH; N-terminus and C-terminus assumed) | binding affinity to SMN, times weaker than for PIWIL1_R4me2s (SMN (aa 80–170); ratio of FP Kd values relative to PIWIL1_R4me2s (Kd 34 µM)): over 4 times |
| > 200 µM | – | > 300 µM | CN=C(NC)NCCC[C@H](NC(=O)CNC(=O)[C@@H](N)[C@@H](C)O)C(=O)N[C@@H](C)C(=O)N[C@@H](CCCNC(=N)N)C(=O)N[C@@H](C)C(=O)N[C@@H](CCCNC(=N)N)C(=O)N[C@@H](C)C(=O)N[C@@H](CCCNC(=N)N)C(=O)NCC(=O)N[C@@H](CCCNC(=N)N)C(=O)N[C@@H](C)C(=O)N[C@@H](CCCNC(=N)N)C(=O)NCC(=O)N[C@@H](CCC(N)=O)C(=O)N[C@@H](CCC(=O)O)C(=O)O [PIWIL1-R4me2s] (H-TG[Arg(Me2s)]ARARARGRARGQE-OH) | – |
| > 500 µM | – | > 400 µM | CN=C(NC)NCCC[C@H](NC(=O)CNC(=O)[C@H](CCCNC(=N)N)NC(=O)CNC(=O)CN)C(=O)NCC(=O)N[C@@H](CCCNC(=N)N)C(=O)NCC(=O)O [SmD3RSDMA] (H-GGRG[Arg(Me2s)]GRG-OH) | – |
| > 400 µM | – | > 150 µM | C[C@H](NC(=O)[C@H](CCCNC(=N)N)NC(=O)CNC(=O)[C@H](CCCNC(=N)N)NC(=O)[C@H](C)NC(=O)[C@H](CCCNC(=N)N)NC(=O)[C@H](C)NC(=O)[C@H](CCCNC(=N)N)NC(=O)[C@H](C)NC(=O)[C@H](CCCNC(=N)N(C)C)NC(=O)CNC(=O)[C@@H](N)[C@@H](C)O)C(=O)N[C@@H](CCCNC(=N)N)C(=O)NCC(=O)N[C@@H](CCC(N)=O)C(=O)N[C@@H](CCC(=O)O)C(=O)O [PIWIL1-R4me2a] (H-TG[Arg(Me2a)]ARARARGRARGQE-OH) | – |
